# Measurements taken from US20230114241A1, “METHODS OF TREATING EPILEPSY USING THE SAME” (Trevena, Inc., priority 2019, published 2023).
# Legend:
# [1] = molecular target: T1, human sphingosine-1-phosphate receptor 1 (S1P1) (Homo sapiens, UniProt P21453); assay: β-Arrestin2 recruitment assay (PathHunter), S1P1 CHO-K1 cells; format: cell-based; settings: for Emax: efficacy normalized to maximum efficacy of fingolimod, read-out: hS1P1 B-arrestin2 SPAN; for EC50: β-arrestin2 recruitment, read-out: hS1P1 B-arrestin2 pEC50 (converted)
# How it was run: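 Agonist-driven β-arrestin2 recruitment measured by β-galactosidase complementation after 60 min compound exposure at 37 °C and 1 h detection at room temperature. Cells: stable CHO-K1 line expressing tagged human S1P1 with EA-β-arrestin2, plated the night before. Data expressed relative to fingolimod.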
# Target sequence in this assay (P21453 whole entry): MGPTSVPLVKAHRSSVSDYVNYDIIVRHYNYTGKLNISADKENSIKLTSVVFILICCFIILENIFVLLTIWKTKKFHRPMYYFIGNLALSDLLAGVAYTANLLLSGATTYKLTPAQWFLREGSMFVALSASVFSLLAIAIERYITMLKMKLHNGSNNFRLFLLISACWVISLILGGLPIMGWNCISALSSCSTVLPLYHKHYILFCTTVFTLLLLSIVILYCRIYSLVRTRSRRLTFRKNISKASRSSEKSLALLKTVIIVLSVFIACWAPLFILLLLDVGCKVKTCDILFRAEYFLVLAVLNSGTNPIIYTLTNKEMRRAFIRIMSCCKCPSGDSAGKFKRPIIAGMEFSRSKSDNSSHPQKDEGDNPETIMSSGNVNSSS
# Target sequence in this assay (P32121 whole entry partner): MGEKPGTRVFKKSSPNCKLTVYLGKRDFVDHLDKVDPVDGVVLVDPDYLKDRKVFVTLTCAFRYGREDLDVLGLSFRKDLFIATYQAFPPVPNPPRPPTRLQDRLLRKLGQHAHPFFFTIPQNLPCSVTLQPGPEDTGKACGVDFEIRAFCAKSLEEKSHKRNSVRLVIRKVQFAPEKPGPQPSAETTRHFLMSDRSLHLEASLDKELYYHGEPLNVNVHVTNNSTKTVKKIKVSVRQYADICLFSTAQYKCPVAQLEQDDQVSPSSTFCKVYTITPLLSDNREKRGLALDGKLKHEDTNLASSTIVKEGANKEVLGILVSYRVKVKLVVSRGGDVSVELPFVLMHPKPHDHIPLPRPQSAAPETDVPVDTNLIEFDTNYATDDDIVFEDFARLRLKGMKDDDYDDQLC
# [2] = molecular target: sphingosine-1-phosphate receptor 5 (S1P5) (Homo sapiens, UniProt Q9H228); assay: Selectivity: inhibition of cAMP production (HTRF), S1P5 CHO-K1 cells; format: cell-based; settings: for Emax: CHO-K1, efficacy normalized to maximal efficacy of fimgolimod, read-out: hS1P5 cAMP SPAN; for EC50: inhibition of cAMP production, read-out: hS1P5 cAMP pEC50 (converted)
# Procedure: Cell Culturing and Assay Plating Cell lines were cultured in AssayComplete™ Media 6 (DiscoverX Corporation, Cat #: 920018GF2) at 37° C. and 5% CO2 in a humidified CO2 and temperature-controlled incubator. To begin assay plating, cells were washed with Dulbecco's phosphate buffered saline (CellGro, Cat #: 21-031-CV) and lifted from the culturing flask by incubation (37° C., 5 min) with CellStripper (Cellgro, Cat #: 25-056-CI). […] Plated cells were incubated overnight at 37° C. and 5% CO2 in a humidified CO2 and temperature-controlled incubator. Detecting Inhibition of cAMP Production
# S1P3 and S1P5 Agonist-promoted G-protein responses were determined by measuring changes in intracellular cAMP using the HTRF® cAMP HiRange kit (CisBio, Cat #: 62AM6PEJ) based on time-resolved fluorescence resonance energy transfer (TR-FRET) technology. […] Following a 30-minute room temperature incubation the components of the cAMP HiRange kit were added as per the manufacturer's instructions. After an hour incubation at room temperature, plates were analyzed by a BMG PheraStar microplate reader.
# These values are normalized to fimgolimod, a known agonist of the sphingosine-1-phosphate 3 and 5 receptor or CYM5520, a known agonist of the sphingosine-1-phosphate 2 receptor. The tables also include potency values (pEC50) for modulating discrete receptor-mediated activities (inhibition of cAMP production or inositol monophosphate accumulation).
# [3] = molecular target: human sphingosine-1-phosphate receptor 3 (S1P3) (Homo sapiens, UniProt Q99500); assay: Selectivity: inhibition of cAMP production (HTRF), S1P3 CHO-K1 cells; format: cell-based; settings: for Emax: CHO-K1, efficacy normalized to maximal efficacy of fimgolimod, read-out: hS1P3 cAMP SPAN; for EC50: inhibition of cAMP production, read-out: hS1P3 cAMP pEC50 (converted)
# [4] = molecular target: T1, human sphingosine-1-phosphate receptor 1 (S1P1); assay: Inhibition of cAMP production (HTRF cAMP HiRange), S1P1 CHO-K1 cells; format: cell-based; settings: for Emax: CHO-K1, efficacy normalized to maximum efficacy of fingolimod, read-out: hS1P1 CAMP SPAN; for EC50: read-out: hS1P1 CAMP pEC50 (converted)
# How it was run: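 Intracellular cAMP changes read by TR-FRET (HTRF HiRange, 1 h room temperature) after 30 min compound exposure at 37 °C. Cells: overnight-plated CHO-K1 stably expressing tagged human S1P1 with EA-β-arrestin2. Responses normalized to fingolimod.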
# Target sequence in this assay (P21453 whole entry): as the sequence (P21453 whole entry) above
# [5] = molecular target: human sphingosine-1-phosphate receptor 2 (S1P2) (Homo sapiens, UniProt O95136); assay: Selectivity: inositol monophosphate production (IP-one), S1P2 CHO-K1 cells; format: cell-based; settings: for Emax: CHO-K1, efficacy normalized to maximal efficacy of CYM5520, read-out: hS1P2 IP-one SPAN; for EC50: inositol monophosphate accumulation, read-out: hS1P2 IP-one pEC50 (converted)
# hERG channel = hERG channel (Homo sapiens, UniProt Q12809); assay: cell-based
# [6] = tested on: peripheral blood lymphocytes; assay: Lymphopenia: peripheral blood lymphocyte counts, acute and chronic s.c. dosing; format: in vivo; settings: c57bl/6 mice
# Procedure: Compounds were tested for changes in peripheral blood lymphocytes in C57bl/6 mice. In acute studies, animals (n=5/group) were dosed subcutaneously with test compound at a dose of 3 mg/kg. Animals were sacrificed at specific time points and […] of whole blood was collected in EDTA (K2) Eppendorf tubes. Blood was stored on ice and shipped immediately overnight delivery to Charles River Laboratories for analysis. CRL ran samples through their WBC/differential panel on an Advia 120 instrument. We received peripheral lymphocyte counts (10^3 cells/μl) for each blood sample. Treatment group means were compared to a vehicle treatment group for statistical significance. In chronic studies, animals (n=6-8/group) were dosed subcutaneously for three to seven days with test compound at doses that were at least 5-fold higher than the efficacious dose in pharmacology/behavioral assays. On the last day, animals were sacrificed 45 minutes to 6 hrs after the final dose. Whole blood was collected and analyzed as described for acute studies. […]
# [7] = tested on: Corneal Kindled Seizure Model; assay: Corneal Kindled Seizure Model (CKM), mouse; format: in vivo; design: key to Average Seizure Scores: seizure stage score; Stage 5 = rearing and falling, generalized clonic seizure
# Procedure: Compounds are tested for efficacy in Corneal Kindled Seizure Model (CKM) Mouse. The pharmacological profile of the corneal kindled mouse is consistent with human partial epilepsy and effectively identifies the anticonvulsant potential of useful compounds for this condition, such as levetiracetam. Male C57BL/6 mice are kindled electrically with 3 sec stimulation, 3 mA, 60 Hz, and corneal electrodes to a criterion of 5 consecutive Stage 5 seizures (facial clonus and head nodding progressing to forelimb clonus, and finally rearing and falling accompanied by a generalized clonic seizure). After receiving twice daily corneal stimulations, mice typically reach the first Stage 5 seizure between approximately 10-14 days. […] Fully kindled mice are then stimulated every-other day until all other mice within the group reach the criterion of 5 consecutive Stage 5 seizures. Any mouse not achieving the fully kindled state is not included in any evaluation of investigational compounds. Testing of investigational compounds commences at least 5-7 days after the last stimulation. Mice are stimulated on the day prior to any drug evaluation to ensure that all mice to be used in the drug study will present with a Stage 5 seizure. […] After testing, the corneal kindled animals are returned to their home cage. Unlike the acute seizure tests conducted by the ETSP, each corneal kindled mouse is allowed at least 3-4 days between tests to “washout” any investigational compound after testing. Compound 469 was tested in the method described in Example 5. The data for Compound 469 is illustrated in Tables 1-4.
# [8] = CHO-K1, β-arrestin2 recruitment
# [9] = inhibition of cAMP production, potency
# [10] = inhibition of cAMP production, S1P1
# [11] = 3 mg/kg s.c., 0.5 hour, Experiment 1
# [12] = 3 mg/kg s.c., 1 hour, Experiment 1
# [13] = 5 mg/kg s.c., 0.5 hour, Experiment 1
# [14] = 5 mg/kg s.c., 1 hour, Experiment 1
# Sequence of hERG channel (Q12809 whole entry): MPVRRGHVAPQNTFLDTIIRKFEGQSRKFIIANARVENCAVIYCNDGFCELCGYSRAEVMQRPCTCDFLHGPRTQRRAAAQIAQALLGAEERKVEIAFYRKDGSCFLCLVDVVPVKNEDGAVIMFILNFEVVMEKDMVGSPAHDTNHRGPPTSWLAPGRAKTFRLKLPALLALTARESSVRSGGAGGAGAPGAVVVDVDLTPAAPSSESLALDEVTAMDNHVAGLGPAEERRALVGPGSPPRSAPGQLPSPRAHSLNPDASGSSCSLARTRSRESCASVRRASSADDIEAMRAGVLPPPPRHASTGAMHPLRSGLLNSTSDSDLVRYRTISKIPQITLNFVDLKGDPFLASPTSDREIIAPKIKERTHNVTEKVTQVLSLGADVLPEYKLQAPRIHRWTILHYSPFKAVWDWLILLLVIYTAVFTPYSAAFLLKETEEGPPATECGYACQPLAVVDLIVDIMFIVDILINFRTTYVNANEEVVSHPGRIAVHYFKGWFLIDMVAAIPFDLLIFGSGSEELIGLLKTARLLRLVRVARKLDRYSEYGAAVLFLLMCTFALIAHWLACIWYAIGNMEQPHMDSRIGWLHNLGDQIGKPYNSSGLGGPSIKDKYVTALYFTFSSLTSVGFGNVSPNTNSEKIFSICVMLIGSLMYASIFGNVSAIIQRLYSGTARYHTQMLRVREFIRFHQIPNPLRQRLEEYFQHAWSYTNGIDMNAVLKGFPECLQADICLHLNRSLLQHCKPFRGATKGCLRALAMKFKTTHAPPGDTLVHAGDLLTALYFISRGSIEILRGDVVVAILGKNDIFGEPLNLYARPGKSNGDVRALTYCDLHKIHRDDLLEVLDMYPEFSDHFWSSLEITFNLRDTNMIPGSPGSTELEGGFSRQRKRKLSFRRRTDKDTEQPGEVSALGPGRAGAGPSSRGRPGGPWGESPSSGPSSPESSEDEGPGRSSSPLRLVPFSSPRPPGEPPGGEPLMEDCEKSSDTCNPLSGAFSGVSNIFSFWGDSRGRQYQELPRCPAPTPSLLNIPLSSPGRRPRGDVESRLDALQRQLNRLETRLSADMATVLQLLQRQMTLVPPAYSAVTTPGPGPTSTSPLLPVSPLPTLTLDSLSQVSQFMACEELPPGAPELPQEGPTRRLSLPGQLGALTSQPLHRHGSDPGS
# Sequence of sphingosine-1-phosphate receptor 5 (S1P5) (Q9H228 whole entry): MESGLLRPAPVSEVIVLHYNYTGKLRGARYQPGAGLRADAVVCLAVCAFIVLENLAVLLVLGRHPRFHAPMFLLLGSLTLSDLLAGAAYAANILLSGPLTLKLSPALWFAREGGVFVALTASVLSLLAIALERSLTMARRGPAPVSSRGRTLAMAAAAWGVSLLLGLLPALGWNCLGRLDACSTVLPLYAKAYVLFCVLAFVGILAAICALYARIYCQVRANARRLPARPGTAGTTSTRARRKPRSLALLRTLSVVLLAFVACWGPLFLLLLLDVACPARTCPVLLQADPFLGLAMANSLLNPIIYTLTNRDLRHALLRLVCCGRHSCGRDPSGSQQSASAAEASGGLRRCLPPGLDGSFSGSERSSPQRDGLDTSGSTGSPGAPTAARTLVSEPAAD
# Sequence of human sphingosine-1-phosphate receptor 2 (S1P2) (O95136 whole entry): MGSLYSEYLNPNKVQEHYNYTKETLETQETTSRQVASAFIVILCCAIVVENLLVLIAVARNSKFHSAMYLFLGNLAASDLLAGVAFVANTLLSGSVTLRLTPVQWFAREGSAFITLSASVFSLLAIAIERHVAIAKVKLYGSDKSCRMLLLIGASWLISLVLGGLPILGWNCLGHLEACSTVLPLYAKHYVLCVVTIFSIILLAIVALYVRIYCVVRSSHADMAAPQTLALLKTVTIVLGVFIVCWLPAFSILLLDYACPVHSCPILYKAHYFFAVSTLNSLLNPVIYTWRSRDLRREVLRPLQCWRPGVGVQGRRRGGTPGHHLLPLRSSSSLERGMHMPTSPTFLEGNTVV
# Sequence of human sphingosine-1-phosphate receptor 3 (S1P3) (Q99500 whole entry): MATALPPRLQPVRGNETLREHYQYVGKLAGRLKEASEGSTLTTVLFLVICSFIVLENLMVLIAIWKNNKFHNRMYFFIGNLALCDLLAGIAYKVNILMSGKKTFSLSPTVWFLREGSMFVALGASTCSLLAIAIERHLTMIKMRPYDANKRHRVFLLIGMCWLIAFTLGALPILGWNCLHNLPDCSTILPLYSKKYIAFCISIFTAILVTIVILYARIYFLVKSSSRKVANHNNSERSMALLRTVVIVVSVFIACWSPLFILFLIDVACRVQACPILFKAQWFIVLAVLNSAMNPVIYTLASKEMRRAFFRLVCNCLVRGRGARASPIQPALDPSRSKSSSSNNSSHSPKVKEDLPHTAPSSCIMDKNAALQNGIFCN
compound,measurement,setting,value
"COc1ccc(-c2noc(-c3ccc4c(c3)nnn4CC(C)(C)O)n2)c(C)c1 [Compound 26, 1-{5-[3-(4-methoxy-2-methylphenyl)-1,2,4-oxadiazol-5-yl]-1H-1,2,3-benzo-triazol-1-yl}-2-methylpropan-2-ol]",Emax,[1]; [8],> 75%
same,EC50,[1]; potency,< 10 µM
same,Emax,[2],< 50%
same,EC50,[2],> 10 µM
same,Emax,[3],< 50%
same,EC50,[3],> 10 µM
same,Emax,[4]; inhibition of cAMP production,> 75%
same,EC50,[4]; [9],< 0.316 µM
same,Emax,[5],< 50%
same,EC50,[5],> 10 µM
same,IC50,hERG channel,> 10 µM
"CC(C)Oc1ccc(-c2ncc(-c3ccnc(O)c3)cn2)cc1C#N [Compound 744, 5-(5-(2-hydroxy-pyridin-4-yl)pyrimidin-2-yl)-2-isopropoxy-benzonitrile]",IC50,hERG channel,> 10 µM
"COc1ccccc1-c1nc(-c2ccc3c(c2)nnn3C(C)C)no1 [Compound 287, 3-(1-isopropyl-1H-benzo[d][1,2,3]triazol-5-yl)-5-(2-methoxy-phenyl)-1,2,4-oxadiazole]",Emax,[1]; [8],> 75%
same,EC50,[1]; potency,< 10 µM
same,Lymphopenia effect (peripheral blood lymphocytes),"[6]; 6 mg/kg sc, 7 days","no change: 6 mg/kg, 7 days"
same,Emax,[2],< 50%
same,EC50,[2],> 10 µM
same,Emax,[3],< 50%
same,EC50,[3],> 10 µM
same,Emax,[4]; inhibition of cAMP production,> 75%
same,EC50,[4]; [9],< 0.316 µM
same,Emax,[5],< 50%
same,EC50,[5],> 10 µM
"CC(C)n1nnc2cc(-c3nc(-c4cccc5c4OCO5)no3)ccc21 [Compound 32, 3-(benzo[d][1,3]dioxol-4-yl)-5-(1-isopropyl-1H-benzo[d][1,2,3]triazol-5-yl)-1,2,4-oxadiazole]",Emax,[1]; [8],< 75%
same,EC50,[1]; potency,< 10 µM
same,Lymphopenia effect (peripheral blood lymphocytes),"[6]; 6 mg/kg sc, 7 days","no change: 6 mg/kg, 7 days"
same,Emax,[2],< 50%
same,EC50,[2],> 10 µM
same,Emax,[3],< 50%
same,EC50,[3],> 10 µM
same,Emax,[4]; inhibition of cAMP production,> 75%
same,EC50,[4]; [9],< 0.316 µM
same,Emax,[5],< 50%
same,EC50,[5],> 10 µM
"CC(C)Nc1ccc(-c2ncc(-c3ccnc(O)c3)cn2)cc1C#N [Compound 743, 5-(5-(2-hydroxy-pyridin-4-yl)pyrimidin-2-yl)-2-(isopropyl-amino)benzonitrile]",IC50,hERG channel,> 10 µM
"N#Cc1cc(-c2nc(-c3ccc4c(c3)NC(=O)C4)no2)ccc1NCC1CC1 [Compound 497, 2-((cyclopropyl-methyl)amino)-5-(3-(2-oxoindolin-6-yl)-1,2,4-oxadiazol-5-yl)benzonitrile]",Emax,[1]; CHO-K1,> 75%
same,EC50,[1]; S1P1,< 10 µM
same,Emax,[4],> 75%
same,EC50,[4]; [10],< 0.316 µM
same,IC50,hERG channel,> 10 µM
"CC(C)n1nnc2cc(-c3nc(-c4cccc5c4OCCC5)no3)ccc21 [Compound 304, 3-chroman-8-yl-5-(1-isopropylbenzotriazol-5-yl)-1,2,4-oxadiazole]",Emax,[1]; [8],> 75%
same,EC50,[1]; potency,< 10 µM
same,Lymphopenia effect (peripheral blood lymphocytes),"[6]; 6 mg/kg sc, 7 days","no change: 6 mg/kg, 7 days"
same,Emax,[2],< 50%
same,EC50,[2],> 10 µM
same,Emax,[3],< 50%
same,EC50,[3],< 10 µM
same,Emax,[4]; inhibition of cAMP production,< 75%
same,EC50,[4]; [9],< 0.316 µM
same,Emax,[5],< 50%
same,EC50,[5],> 10 µM
same,IC50,hERG channel,> 10 µM
"CC(C)Oc1ccc(-c2ncc(-c3ccccn3)cn2)cc1C#N [Compound 742, 2-isopropoxy-5-(5-(pyridin-2-yl)pyrimidin-2-yl)benzonitrile]",IC50,hERG channel,> 10 µM
"CC(C)Oc1ccc(-c2ncc(-c3cccnc3)cn2)cc1C#N [Compound 738, 2-isopropoxy-5-(5-(pyridin-3-yl)pyrimidin-2-yl)benzonitrile]",IC50,hERG channel,> 10 µM
"CC(C)Nc1ccc(-c2nc(-c3ccc4nonc4c3)no2)cc1C#N [Compound 730, 5-[3-(2,1,3-benzoxa-diazol-5-yl)-1,2,4-oxadiazol-5-yl]-2-[(propan-2-yl)amino]benzonitrile]",Lymphopenia effect (peripheral blood lymphocytes),"[6]; 6 mg/kg sc, 7 days","no change: 6 mg/kg, 7 days"
same,IC50,hERG channel,> 10 µM
"CCC1(CC)CC(=O)c2cc(-c3nc(-c4cn[nH]c4)no3)ccc2O1 [Compound 469, 6-(3-(1H-pyrazol-4-yl)-1,2,4-oxadiazol-5-yl)-2,2-diethyl-chroman-4-one]",Lymphopenia effect (peripheral blood lymphocytes),"[6]; 3.7 mg/kg sc, 3 days","no change: 3.7 mg/kg, 3 days"
same,EC50,[4]; [10],< 0.316 µM
same,Average Seizure Scores,"[7]; 1 mg/kg, 2 hrs, Experiment 2",3.25
same,N/F (number of animals protected / total number tested),"[7]; 1 mg/kg, 2 hrs, Experiment 2",1/8
same,Average Seizure Scores,"[7]; 2.5 mg/kg, 2 hrs, Experiment 2",3.38
same,N/F (number of animals protected / total number tested),"[7]; 2.5 mg/kg, 2 hrs, Experiment 2",2/8
same,Average Seizure Scores,[7]; [11],4.5
same,N/F (number of animals protected / total number tested),[7]; [11],0/8
same,Average Seizure Scores,[7]; [12],3.38
same,N/F (number of animals protected / total number tested),[7]; [12],1/8
same,Average Seizure Scores,[7]; [13],4
same,N/F (number of animals protected / total number tested),[7]; [13],0/8
same,Average Seizure Scores,[7]; [14],3.38
same,N/F (number of animals protected / total number tested),[7]; [14],1/8
same,Average Seizure Scores,"[7]; 5 mg/kg, 2 hrs, Experiment 2",2.5
same,N/F (number of animals protected / total number tested),"[7]; 5 mg/kg, 2 hrs, Experiment 2",3/8
same,Average Seizure Scores,"[7]; 10 mg/kg, 1 hour",2.38
same,N/F (number of animals protected / total number tested),"[7]; 10 mg/kg, 1 hour",2/8
same,Average Seizure Scores,"[7]; 10 mg/kg, 2 hrs",0.63
same,N/F (number of animals protected / total number tested),"[7]; 10 mg/kg, 2 hrs",7/8
same,effect on seizures,"[7]; Corneal Kindled Seizure Model, mouse",can reduce seizures
same,ED50,"[7]; Corneal Kindled Seizure Model, mouse, 2 hrs time point",6.2 mg/kg
"Cc1ccccc1-c1nc(-c2ccc3c(c2)nnn3C(C)C)no1 [Compound 99, 3-(1-isopropyl-1H-benzo[d][1,2,3]triazol-5-yl)-5-(o-tolyl)-1,2,4-oxadiazole]",Emax,[1]; [8],> 75%
same,EC50,[1]; potency,< 10 µM
same,Lymphopenia effect (peripheral blood lymphocytes),"[6]; 6 mg/kg sc, 7 days","no change: 6 mg/kg, 7 days"
same,Emax,[2],> 50%
same,EC50,[2],> 10 µM
same,Emax,[3],< 50%
same,EC50,[3],> 10 µM
same,Emax,[4]; inhibition of cAMP production,> 75%
same,EC50,[4]; [9],< 0.316 µM
same,Emax,[5],< 50%
same,EC50,[5],> 10 µM
